# Laboratory results published in the supplement of paper PMC8671470.
# Counter-ions that a name gives are not always drawn.
# Assays:
# Details in all cases: 72 h
# [1] = system: HL-60; assay: area under dose-response curve (viability, 1 nM-10 uM) (fraction (0-1)); higher = more sensitive
# Outline: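 HL-60 cells in RPMI 1640 with 10% FBS were rescreened against the full library on 384-well plates at five tenfold concentrations, 1–10,000 nM, in duplicate. Each screen was run with DMSO or 100 nM of one of three metabolic inhibitors, for 72 h at 37 °C, 5% CO2. Viability was read by CellTiter-Glo and normalised to DMSO and 10 μM proteasome-inhibitor wells. Where given, area under the curve came from four-parameter log-logistic fits (drc, PharmacoGx).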
# [2] = system: HL-60
# Outline: (§1)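 Dose–response data were fitted with a four-parameter log-logistic model. They came from fifteen myeloid leukaemia lines treated in duplicate with five tenfold doses from 1 to 10,000 nM for 72 h at 37 °C with 5% CO2, with ATP viability normalised to vehicle and to a positive control at 10 µM. The IC50 was derived from these fits.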
# [3] = system: BV-173
# Outline: as §1
# [4] = system: ML-2
# Outline: as §1
# [5] = system: MOLM-13
# Outline: as §1
# [6] = system: KG-1
# Outline: as §1
# [7] = system: LAMA-84
# Outline: as §1
# [8] = system: KCL-22
# Outline: as §1
# [9] = system: THP-1
# Outline: as §1
# [10] = system: SHI-1
# Outline: as §1
# [11] = system: HEL
# Outline: as §1
# [12] = co-treatment: GSK2194069 100 nM
# [13] = co-treatment: pictilisib 100 nM
SMILES,area under dose-response curve ([1]; co-treatment: AZD3965 100 nM),area under dose-response curve ([1]; co-treatment: DMSO vehicle),"area under dose-response curve [1, 12]","area under dose-response curve [1, 13]",IC50 (cell viability) [2],IC50 (cell viability) [3],IC50 (cell viability) [4],IC50 (cell viability) [5],IC50 (cell viability) [6],IC50 (cell viability) [7],IC50 (cell viability) [8],IC50 (cell viability) [9],IC50 (cell viability) [10],IC50 (cell viability) [11]
CN(CCCOc1ccc(Cc2ccccc2)cc1)CCC(=O)O,< 0.0301,< 0.0301,< 0.0301,< 0.0301,> 10 µM,> 10 µM,> 10 µM,> 10 µM,> 10 µM,> 10 µM,> 10 µM,> 10 µM,> 10 µM,> 10 µM
CCN(CCO)CCCC(C)Nc1ccnc2cc(Cl)ccc12 (stereo not drawn) [Hydroxychloroquine sulfate],< 0.0301,< 0.0301,< 0.0301,< 0.0301,> 10 µM,> 10 µM,> 10 µM,> 10 µM,> 10 µM,> 10 µM,> 10 µM,> 10 µM,> 10 µM,> 10 µM
C[C@H]1c2cccc(O)c2C(=O)C2C(=O)[C@]3(O)C(=O)C(C(N)=O)C(=O)[C@@H](N(C)C)[C@@H]3[C@@H](O)[C@@H]21 (stereo partly drawn) [Doxycycline],< 0.0301,< 0.0301,< 0.0301,< 0.0301,> 10 µM,> 10 µM,8.51 µM,> 10 µM,> 10 µM,> 10 µM,8.54 µM,> 10 µM,> 10 µM,> 10 µM
O=c1cc(-c2ccccc2)oc2c1ccc1ccccc12 [Alpha-Naphtoflavone],< 0.0301,< 0.0301,< 0.0301,< 0.0301,> 10 µM,> 10 µM,> 10 µM,> 10 µM,> 10 µM,> 10 µM,> 10 µM,> 10 µM,> 10 µM,> 10 µM
N[C@@H](CC(=O)N1CCn2c(nnc2C(F)(F)F)C1)Cc1cc(F)c(F)cc1F [Sitagliptin],< 0.0301,< 0.0301,< 0.0301,< 0.0301,> 10 µM,> 10 µM,> 10 µM,> 10 µM,> 10 µM,> 10 µM,> 10 µM,> 10 µM,> 10 µM,> 10 µM
OC[C@H]1NC[C@H](O)[C@@H](O)[C@@H]1O [Duvoglustat],< 0.0301,< 0.0301,< 0.0301,< 0.0301,> 10 µM,> 10 µM,> 10 µM,> 10 µM,> 10 µM,> 10 µM,> 10 µM,> 10 µM,> 10 µM,> 10 µM
O=C(NCCN1CCC(n2c(O)nc3ccccc32)CC1)c1cc2cc(F)ccc2[nH]1 [FIPI],< 0.0301,< 0.0301,< 0.0301,< 0.0301,> 10 µM,> 10 µM,> 10 µM,> 10 µM,> 10 µM,> 10 µM,> 10 µM,> 10 µM,> 10 µM,> 10 µM
